# Reference: BindingDB's records for doi:10.1007/s00044-011-9938-0 (n/a, 2012)
# Biological target: Alpha-glucosidase MAL62 (Saccharomyces cerevisiae, UniProt P07265)
# Assay: Inhibition of baker's yeast alpha-glucosidase using p-nitrophenyl-alpha-D-glucopyranoside as substrate by spectrophotometry
# Alpha-glucosidase MAL62, sequence (P07265 whole entry): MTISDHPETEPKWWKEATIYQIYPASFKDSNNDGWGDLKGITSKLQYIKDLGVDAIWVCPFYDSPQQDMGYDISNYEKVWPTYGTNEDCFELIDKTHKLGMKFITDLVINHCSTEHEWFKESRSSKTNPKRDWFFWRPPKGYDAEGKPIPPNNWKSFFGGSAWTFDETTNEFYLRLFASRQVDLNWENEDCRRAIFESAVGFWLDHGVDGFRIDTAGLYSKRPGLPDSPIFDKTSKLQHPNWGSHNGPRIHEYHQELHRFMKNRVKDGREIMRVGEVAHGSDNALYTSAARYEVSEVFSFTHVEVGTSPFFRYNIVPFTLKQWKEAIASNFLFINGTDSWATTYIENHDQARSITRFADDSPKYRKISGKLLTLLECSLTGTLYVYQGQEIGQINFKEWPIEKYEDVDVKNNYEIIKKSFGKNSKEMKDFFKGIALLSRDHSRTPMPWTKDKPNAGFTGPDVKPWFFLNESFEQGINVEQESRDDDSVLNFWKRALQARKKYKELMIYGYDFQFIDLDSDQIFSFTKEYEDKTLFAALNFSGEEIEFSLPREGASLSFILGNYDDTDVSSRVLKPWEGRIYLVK
row,IC50 [µM],SMILES
1,14,O=c1c(-c2ccc(O)cc2)coc2cc(O)ccc12
2,4,O=c1cc(O)cc2oc(-c3ccc(O)c(O)c3)c(O)cc1-2
3,19.1,CC1(C)C=Cc2cc(C(=O)/C=C/c3ccc(O)c(O)c3)c(O)cc2O1
4,270,O=C(O)/C=C/c1ccc(F)cc1
5,155,C=C(C)C(CC=C(C)C)Cc1c(O)cc(OC)c2c1OC(c1ccc(OC)cc1O)CC2=O (stereo not drawn)
6,12,CC(C)=CCc1cc(C2CCc3ccc(O)cc3O2)c(CC=C(C)C)c(O)c1O (stereo not drawn)
7,358,COc1cc(O)c(C(C)=C(C)C)c2c1C(=O)CC(c1ccc(O)cc1)O2 (stereo not drawn)
8,179,C=C(C)C(CCC(C)(C)O)Cc1c(O)cc(OC)c2c1OC(c1ccc(O)cc1O)CC2=O (stereo not drawn)
9,37,C=C(C)C(CC=C(C)C)Cc1c(O)cc(O)c2c1OC(c1ccc(O)cc1O)CC2=O (stereo not drawn)
10,45,C=C(C)C(CC=C(C)C)Cc1c(O)cc(O)c2c1OC(c1ccccc1O)CC2=O (stereo not drawn)
11,27.6,C=CC(C)(C)c1c(O)cc(O)c2c(=O)c3oc4c5c(c(OCC=C(C)C)cc4c3oc12)OC(C)(C)C=C5
12,30,OC[C@H]1OC(OC2=C(c3cc(O)c(O)c(O)c3)Oc3cc(O)cc(O)c3C2)[C@@H](O)[C@@H](O)[C@@H]1O (stereo partly drawn)
13,440,O=C(O)/C=C/c1ccc(Oc2ccccc2)cc1
14,579,COc1cccc(/C=C/C(=O)O)c1
15,10.6,C=CC(C)(C)c1cc2c(cc1O)OC(c1cc(O)c(O)c(CC=C(C)C)c1C/C=C\C)CC2 (stereo not drawn)
16,68.1,C=C(C)C(CC=C(C)C)Cc1c(O)cc(OC)c2c1OC(c1ccc(O)cc1O)CC2=O (stereo not drawn)
17,33.3,C=CC(C)(C)c1c(O)cc(O)c2c(=O)c3oc4c(CC=C(C)C)c(O)c(OCC=C(C)C)cc4c3oc12

row,IC50 [µM],SMILES
1,20,OC[C@H]1OC(OC2=C(c3ccc(O)c(O)c3)Oc3cc(O)cc(O)c3C2)[C@@H](O)[C@@H](O)[C@@H]1O (stereo partly drawn)
2,26.3,CC(C)=CCc1c(C2CCc3ccc(O)cc3O2)cc2c(c1O)OC(C)(C)C=C2 (stereo not drawn)
3,40,"O=c1c(O)c(-c2ccc(O)cc2O)oc2cc(O)cc(O)c12 [2-(2,4-dihydroxyphenyl)-3,5,7-trihydroxychromen-4-one]"
4,13,"O=c1c(O)c(-c2ccc(O)c(O)c2)oc2cc(O)ccc12 [2-(3,4-dihydroxyphenyl)-3,7-dihydroxy-chromen-4-one]"
5,3.6,"C=CC(C)(C)c1c(O)cc(O)c2c(=O)c(O)c(-c3cc(O)c(O)c(CC=C(C)C)c3)oc12 [2-[3,4-Dihydroxy-5-(3-methyl-but-2-enyl)-phenyl]-8-(1,1-dimethyl-allyl)-3,5,7-trihydroxy-chromen-4-one]"
6,40,COc1ccc(/C=C/C(=O)O)cc1 [3-(4-methoxyphenyl)acrylic acid]
7,12.3,CC1(C)C=Cc2cc(C(=O)/C=C/c3ccc(O)cc3)c(O)cc2O1 [4-HYDROXYISOLONCHOCARPIN]
8,50,CCOC(=O)/C=C/c1ccc(OC)cc1 [4-Methoxy Ethyl Cinnamate]
9,75.7,"CC(C)=CCc1cc(C2CCc3ccc(O)cc3O2)cc(O)c1O (stereo not drawn) [5-(7-Hydroxy-chroman-2-yl)-3-(3-methyl-but-2-enyl)-benzene-1,2-diol]"
10,1270,O=C(O)/C=C/c1cccc(O)c1 [(2E)-3-(3-hydroxyphenyl)prop-2-enoic acid]
11,150,"COc1ccc([C@@H]2CC(=O)c3c(O)cc(O)cc3O2)cc1O [(2S)-5,7-dihydroxy-2-(3-hydroxy-4-methoxyphenyl)-3,4-dihydro-2H-1-benzopyran-4-one]"
12,11.1,CC(C)=CCc1cc(C(=O)/C=C/c2ccc(O)cc2)c(O)cc1O [BROUSSOCHALCONE B]
13,390,O=C(O)/C=C/c1ccc(Cl)cc1 [CHEBI:61116]
14,2.1,CC(C)=CCc1cc(-c2oc3cc(O)c(CC=C(C)C)c(O)c3c(=O)c2O)cc(O)c1O [CHEBI:66727]
15,7,O=c1c(-c2ccc(O)cc2)coc2cc(O)cc(O)c12 [Prunetol]
16,5.3,CC(C)=CCc1cc(C(=O)/C=C/c2ccc(O)c(O)c2)c(O)cc1O [broussochalcone A]
17,200,O=C(O)/C=C/c1ccc(O)cc1 [p-Coumaric Acid]

row,SMILES,IC50 [µM]
1,O=c1c(O)c(-c2cc(O)c(O)c(O)c2)oc2cc(O)cc(O)c12,5
2,O=C1C[C@@H](c2ccc(O)cc2)Oc2cc(O)cc(O)c21,75
3,O=c1c(O)c(-c2ccc(O)cc2)oc2cc(O)cc(O)c12,12
4,"O=c1c(O)c(-c2ccc(O)c(O)c2)oc2cc(O)cc(O)c12 [2-(3,4-dihydroxyphenyl)-3,5,7-trihydroxy-chromone;hydrate]",7
5,"O=c1cc(-c2ccc(O)c(O)c2)oc2cc(O)cc(O)c12 [2-(3,4-dihydroxyphenyl)-5,7-dihydroxy-4H-chromen-4-one]",21
6,Oc1cc(O)c2c(c1)O[C@H](c1ccc(O)c(O)c1)[C@@H](O)C2 [CHEBI:23053],130
7,Oc1cc(O)c2c(c1)O[C@H](c1cc(O)c(O)c(O)c1)[C@H](O)C2 [CHEBI:71224],75
8,"O=C(O)c1cc(O)c(O)c(O)c1 [Gallic Acid, F]",5.2
9,O=C(O[C@@H]1Cc2c(O)cc(O)cc2O[C@@H]1c1cc(O)c(O)c(O)c1)c1cc(O)c(O)c(O)c1 [epigallocatechin gallate],2
